pIC50: −log10 of the molar value.
How the values were obtained:
Type in all cases: functional, cell-based
[1] = test system: HeLa; test: Antiproliferative activity against human HeLa cells assessed as inhibition of cell growth by SRB assay
[2] = test system: ECa-109 cell line; test: Antiproliferative activity against human EC109 cells assessed as inhibition of cell growth by SRB assay
[3] = test system: MCF7; test: Antiproliferative activity against human MCF7 cells assessed as inhibition of cell growth by SRB assay
[4] = test system: MGC-803; test: Antiproliferative activity against human MGC-803 cells assessed as inhibition of cell growth by SRB assay

| SMILES | pIC50 [1] | pIC50 [3] | pIC50 [4] | pIC50 [2] |
| --- | --- | --- | --- | --- |
| O=C1C(NC2CCCCC2)=CC(=O)c2c1nc1n2[C@H]2OC[C@@H](O)[C@H]2OC1 | < 4.80 | < 4.80 | < 5.10 | < 4.80 |
| COc1cccc(NC2=CC(=O)c3nc4n(c3C2=O)C[C@@H]([C@H](O)CO)OC4)c1 | 5.08 | < 4.80 | 5.03 | < 4.80 |
| COc1ccccc1NC1=CC(=O)c2c(nc3n2[C@H]2OC[C@@H](O)[C@H]2OC3)C1=O | 5.13 | 5.18 | 5.78 | < 5.40 |
| O=C1C(Nc2ccccc2F)=CC(=O)c2c1nc1n2[C@H]2OC[C@@H](O)[C@H]2OC1 | 5.01 | < 5.40 | 5.70 | 5.58 |
| CCCN(CCC)C1=CC(=O)c2c(nc3n2[C@H]2OC[C@@H](O)[C@H]2OC3)C1=O | < 4.80 | < 4.80 | < 4.80 | < 4.80 |
| O=C1C(Nc2cccc(Cl)c2)=CC(=O)c2c1nc1n2[C@H]2OC[C@@H](O)[C@H]2OC1 | 5.10 | 5.53 | 5.82 | 5.51 |
| O=C1C(N2CCCC2)=CC(=O)c2c1nc1n2[C@H]2OC[C@@H](O)[C@H]2OC1 | < 4.80 | < 4.80 | < 4.80 | < 4.80 |
| O=C1C=C(NC2CCCCC2)C(=O)c2c1nc1n2[C@H]2OC[C@@H](O)[C@H]2OC1 | < 4.80 | < 5.10 | < 5.10 | < 4.80 |
| O=C1C(Nc2cccc(F)c2)=CC(=O)c2c1nc1n2C[C@@H]([C@H](O)CO)OC1 | < 4.80 | 5.23 | 5.52 | 5.18 |
| CCOc1ccccc1NC1=CC(=O)c2c(nc3n2[C@H]2OC[C@@H](O)[C@H]2OC3)C1=O | 5.08 | < 5.40 | 5.55 | 5.36 |
| CCCN(CCC)C1=CC(=O)c2nc3n(c2C1=O)[C@H]1OC[C@@H](O)[C@H]1OC3 | < 4.80 | < 4.80 | < 4.80 | < 4.80 |
| O=C1C(N2CCCCC2)=CC(=O)c2c1nc1n2[C@H]2OC[C@@H](O)[C@H]2OC1 | < 4.80 | < 5.10 | < 5.40 | < 5.10 |
| O=C1C(Nc2ccc(C(F)(F)F)cc2)=CC(=O)c2c1nc1n2C[C@@H]([C@H](O)CO)OC1 | 5.14 | 5.37 | 5.69 | 5.39 |
| O=C1C=C(NC2CCCC2)C(=O)c2c1nc1n2[C@H]2OC[C@@H](O)[C@H]2OC1 | < 4.80 | < 4.80 | < 5.10 | < 4.80 |
| Cc1ccc(NC2=CC(=O)c3c(nc4n3C[C@@H]([C@H](O)CO)OC4)C2=O)cc1C | 5.00 | < 4.80 | 5.26 | < 4.80 |
| COc1cccc(NC2=CC(=O)c3c(nc4n3[C@H]3OC[C@@H](O)[C@H]3OC4)C2=O)c1 | < 5.10 | 5.42 | 5.75 | 5.48 |
| CCOc1ccc(NC2=CC(=O)c3c(nc4n3C[C@@H]([C@H](O)CO)OC4)C2=O)cc1 | 5.13 | 5.06 | 5.46 | 5.11 |
| O=C1C=C(NC2CC2)C(=O)c2c1nc1n2C[C@@H]([C@H](O)CO)OC1 | < 4.80 | < 4.80 | < 4.80 | < 4.80 |

Now those with a higher pIC50 [1], led by results:

| pIC50 [1] | pIC50 [3] | pIC50 [4] | SMILES | pIC50 [2] |
| --- | --- | --- | --- | --- |
| 5.30 | 5.33 | 5.81 | CCCc1ccc(NC2=CC(=O)c3nc4n(c3C2=O)[C@H]2OC[C@@H](O)[C@H]2OC4)cc1 | < 5.40 |
| 5.23 | 5.13 | 5.39 | Cc1ccc(NC2=CC(=O)c3c(nc4n3C[C@@H]([C@H](O)CO)OC4)C2=O)cc1 | 5.29 |
| 5.22 | 5.33 | 5.75 | O=C1C=C(Nc2cccc(Cl)c2)C(=O)c2c1nc1n2[C@H]2OC[C@@H](O)[C@H]2OC1 | 5.33 |
| 5.25 | < 5.40 | 5.76 | O=C1C=C(Nc2ccccc2)C(=O)c2c1nc1n2[C@H]2OC[C@@H](O)[C@H]2OC1 | 5.30 |
| 5.48 | 5.23 | 5.44 | CCCc1ccc(NC2=CC(=O)c3nc4n(c3C2=O)C[C@@H]([C@H](O)CO)OC4)cc1 | 5.16 |
| 5.41 | 4.97 | 5.32 | Cc1ccc(NC2=CC(=O)c3nc4n(c3C2=O)C[C@@H]([C@H](O)CO)OC4)cc1 | 5.10 |
| 5.40 | 6.02 | 5.89 | CCc1ccc(NC2=CC(=O)c3nc4n(c3C2=O)[C@H]2OC[C@@H](O)[C@H]2OC4)cc1 | 5.51 |
| 5.44 | 5.11 | 5.49 | O=C1C=C(Nc2ccc(I)cc2)C(=O)c2c1nc1n2C[C@@H]([C@H](O)CO)OC1 | 5.24 |
| 5.42 | 5.59 | 6.00 | O=C1C=C(Nc2ccc(Br)cc2)C(=O)c2c1nc1n2[C@H]2OC[C@@H](O)[C@H]2OC1 | 5.55 |
| 5.18 | < 5.40 | 5.81 | Cc1ccc(NC2=CC(=O)c3c(nc4n3[C@H]3OC[C@@H](O)[C@H]3OC4)C2=O)cc1 | < 5.40 |
| 5.22 | 4.95 | 5.19 | O=C1C=C(Nc2ccc(C(F)(F)F)cc2)C(=O)c2c1nc1n2C[C@@H]([C@H](O)CO)OC1 | 5.17 |
| 5.19 | 5.05 | 5.95 | CCc1ccc(NC2=CC(=O)c3c(nc4n3[C@H]3OC[C@@H](O)[C@H]3OC4)C2=O)cc1 | < 5.40 |

Reference: ChEMBL document CHEMBL5113408, “Design, synthesis and antitumour activity of novel 5(6)-amino-benzimidazolequinones containing a fused morpholine” (Eur J Med Chem, 2022)
